In PubChem BioAssay AID328 (DTP/NCI, 2004):
Several values for one entry are separate records, joined by “and”; a condition that tells them apart may be missing. Equal entries are not always repeated. Inconclusive results and toxic doses are left out.

System: BDF1 mice, P388 leukemia ip, median survival T/C
Experiment: NCI In Vivo Anticancer Drug Screen. Data for tumor model P388 Leukemia (intraperitoneal) in B6D2F1 (BDF1) mice
Details: endpoint: median survival time, higher = longer survival
Outline: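 Read-out is survival of treated animals expressed relative to the vehicle group, as a T/C ratio.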

[1] = dose: 50.0 mg/kg/injection, schedule: Q04DX003 (ip), vehicle: saline with Tween-80
[2] = dose: 100.0 mg/kg/injection, schedule: Q04DX003 (ip), vehicle: saline with Tween-80
[3] = dose: 12.5 mg/kg/injection, schedule: Q01DX009 (ip), vehicle: saline
[4] = dose: 100.0 mg/kg/injection, schedule: Q01DX009 (ip), vehicle: saline with Tween-80
[5] = dose: 200.0 mg/kg/injection, schedule: Q01DX009 (ip), vehicle: saline with Tween-80
[6] = dose: 100.0 mg/kg/injection, schedule: Q01DX009 (ip), vehicle: saline
[7] = dose: 100.0 mg/kg/injection, schedule: Q04DX003 (ip), vehicle: saline
[8] = dose: 200.0 mg/kg/injection, schedule: Q01DX009 (ip), vehicle: saline
[9] = dose: 200.0 mg/kg/injection, schedule: Q04DX003 (ip), vehicle: saline
[10] = dose: 400.0 mg/kg/injection, schedule: Q04DX003 (ip), vehicle: saline
[11] = dose: 25.0 mg/kg/injection, schedule: Q01DX009 (ip), vehicle: saline
[12] = dose: 50.0 mg/kg/injection, schedule: Q01DX009 (ip), vehicle: saline with Tween-80

For `C=C(C)C(=O)O[C@@H]1C[C@@]2(C)O[C@@H]2C[C@H](O)/C(C)=C/[C@H]2OC(=O)C(=C)[C@@H]21`, the T/C (dose: 6.0 mg/kg/injection, schedule: Q01DX009 (ip), vehicle: saline + alcohol) was 113 % of control, the T/C (dose: 12.0 mg/kg/injection, schedule: Q01DX009 (ip), vehicle: saline + alcohol) was 109 % of control and the T/C (dose: 48.0 mg/kg/injection, schedule: Q01DX009 (ip), vehicle: saline + alcohol) was 113 % of control.
For `C=CCN(CC=C)/N=N/c1nc[nH]c1C(N)=O`, the T/C [1] was 100 % of control, the T/C [2] was 95 % of control and the T/C (dose: 200.0 mg/kg/injection, schedule: Q04DX003 (ip), vehicle: saline with Tween-80) was 113 % of control.
For `O=C(/C(=C\c1ccccc1)CBr)c1ccc(Br)cc1`, the T/C (dose: 3.12 mg/kg/injection, schedule: Q01DX009 (ip), vehicle: saline) was 115 % of control, the T/C (dose: 6.25 mg/kg/injection, schedule: Q01DX009 (ip), vehicle: saline) was 115 % of control and the T/C [3] was 110 % of control.
With `COc1ccc(CN(CC(=O)O)S(C)(=O)=O)cc1` the T/C (dose: 100.0 mg/kg/injection, schedule: Q04DX003 (ip), vehicle: other) was 103 % of control, the T/C (dose: 200.0 mg/kg/injection, schedule: Q04DX003 (ip), vehicle: other) was 100 % of control and the T/C (dose: 400.0 mg/kg/injection, schedule: Q04DX003 (ip), vehicle: other) was 109 % of control.
`C(/C=N/N(c1ccccc1)c1ccccc1)=N\N(c1ccccc1)c1ccccc1` was tested, and the T/C (dose: 100.0 mg/kg/injection, schedule: Q04DX003 (ip), vehicle: Klucel (hydroxypropylcellulose) (HPC)) was 100 % of control, the T/C (dose: 200.0 mg/kg/injection, schedule: Q04DX003 (ip), vehicle: Klucel (hydroxypropylcellulose) (HPC)) was 104 % of control and the T/C (dose: 400.0 mg/kg/injection, schedule: Q04DX003 (ip), vehicle: Klucel (hydroxypropylcellulose) (HPC)) was 104 % of control.
In the case of `CN(C)c1ccc(/C=C/c2ccc3ccccc3n2)cc1`, the T/C (dose: 25.0 mg/kg/injection, schedule: Q04DX003 (ip), vehicle: saline with Tween-80) is reported as 86 % of control, the T/C [1] is reported as 86 % of control and the T/C [2] is reported as 86 % of control.
With `CCC(=O)OC(C)COc1ccc(C(C)(C)C)cc1` (stereo unspecified) the T/C [4] was 110 % of control, the T/C [5] was 110 % of control and the T/C (dose: 400.0 mg/kg/injection, schedule: Q01DX009 (ip), vehicle: saline with Tween-80) was 124 % of control.
In the case of `C[C@]12CC[C@@H]3c4ccc(OC5CCCCO5)cc4CC[C@H]3[C@@H]1CC[C@@H]2O` (stereo partly specified), the T/C [6] is reported as 105 % of control, the T/C [7] is reported as 100 % of control and the T/C [8] is reported as 95 % of control. The T/C [9] was 100 % of control and the T/C [10] was 100 % of control.
In the case of `CC(C)CCCC(C)C1CCC2C3CC=C4CC([S+](C)C)CCC4(C)C3CCC12C` (stereo unspecified), the T/C [3] is reported as 109 % of control and the T/C [11] is reported as 86 % of control.
With `COc1cc(NS(C)(=O)=O)ccc1Nc1c2ccccc2nc2c(C)cccc12` the T/C (dose: 1.25 mg/kg/injection, schedule: Q01DX009 (ip), vehicle: Klucel (hydroxypropylcellulose) (HPC)) was 107 % of control, the T/C (dose: 2.5 mg/kg/injection, schedule: Q01DX009 (ip), vehicle: Klucel (hydroxypropylcellulose) (HPC)) was 201 % of control and the T/C (dose: 17.0 mg/kg/injection, schedule: Q04DX003 (ip), vehicle: gum acacia) was 250 % of control. The T/C (dose: 25.0 mg/kg/injection, schedule: Q04DX003 (ip), vehicle: gum acacia) was 250 % of control.
In the case of `CCOC(=O)CSC(=S)SCC(=O)OCC`, the T/C [6] is reported as 100 % of control, the T/C [7] is reported as 90 % of control and the T/C [8] is reported as 105 % of control. The T/C [9] was 100 % of control, the T/C (dose: 400.0 mg/kg/injection, schedule: Q01DX009 (ip), vehicle: saline) was 100 % of control and the T/C [10] was 100 % of control.
`CSCC1(O)CCCCC1` was tested, and the T/C [12] was 111 % of control, the T/C [4] was 101 % of control and the T/C [5] was 112 % of control.
`C=CC(=O)NCCCC(=O)O` was tested, and the T/C (dose: 50.0 mg/kg/injection, schedule: Q01DX009 (ip), vehicle: saline) was 94 % of control, the T/C [6] was 91 % of control and the T/C [8] was 100 % of control.
For `Cc1cc2c(c(O)c1-c1c(C)cc(O)c3c1C(=O)C=CC3=O)C(=O)C=CC2=O`, the T/C (dose: 1.25 mg/kg/injection, schedule: Q01DX009 (ip), vehicle: saline with Tween-80) was 107 % of control, the T/C (dose: 2.5 mg/kg/injection, schedule: Q01DX009 (ip), vehicle: saline with Tween-80) was 114 % of control and the T/C (dose: 5.0 mg/kg/injection, schedule: Q01DX009 (ip), vehicle: saline with Tween-80) was 103 % of control.
In the case of `CC(=O)OC1(C)CC(C)C(O)C(C(O)CC2CC(=O)NC(=O)C2)C1` (stereo unspecified), the T/C (dose: 0.5 mg/kg/injection, schedule: Q01DX010 (ip), vehicle: water) is reported as 120 % of control, the T/C (dose: 2.0 mg/kg/injection, schedule: Q01DX010 (ip), vehicle: water) is reported as 150 % of control and 160 % of control and the T/C (dose: 3.0 mg/kg/injection, schedule: Q01DX010 (ip), vehicle: water) is reported as 190 % of control. The T/C (dose: 4.0 mg/kg/injection, schedule: Q01DX010 (ip), vehicle: water) was 90 % of control and 110 % of control.
For `CCOC(=O)c1ccc(C=O)[nH]1`, the T/C [12] was 101 % of control, the T/C [4] was 99 % of control and the T/C [5] was 99 % of control.
`[I][Hg][CH2]C1OCCOC1[CH2][Hg][I]` (stereo unspecified) was tested, and the T/C [4] was 116 % of control and the T/C [5] was 116 % of control.
For `COc1cc2c3cc1Oc1c(OC)c(OC)cc4c1C(Cc1cc5c(c(c1)Oc1ccc(cc1)CC3N(C)CC2)OCO5)N(C)CC4` (stereo unspecified), the T/C (dose: 5.0 mg/kg/injection, schedule: Q01DX010 (ip), vehicle: saline) was 90 % of control, the T/C (dose: 20.0 mg/kg/injection, schedule: Q01DX010 (ip), vehicle: saline) was 104 % of control and the T/C (dose: 40.0 mg/kg/injection, schedule: Q01DX010 (ip), vehicle: saline) was 95 % of control.
With `O=C(O)CCCCCCCC(=O)c1ccccc1` the T/C (dose: 50.0 mg/kg/injection, schedule: Q04DX003 (ip), vehicle: saline sonified) was 100 % of control, the T/C (dose: 100.0 mg/kg/injection, schedule: Q04DX003 (ip), vehicle: saline sonified) was 104 % of control and the T/C (dose: 200.0 mg/kg/injection, schedule: Q04DX003 (ip), vehicle: saline sonified) was 95 % of control.
For `c1ccc(OCC2CO2)c(OCC2CO2)c1` (stereo unspecified), the T/C (dose: 60.0 mg/kg/injection, schedule: Q01DX005 (ip), vehicle: saline with Tween-80) was 157 % of control, the T/C (dose: 120.0 mg/kg/injection, schedule: Q01DX005 (ip), vehicle: saline with Tween-80) was 185 % of control and the T/C (dose: 240.0 mg/kg/injection, schedule: Q01DX005 (ip), vehicle: saline with Tween-80) was 171 % of control.
For `C/C=C1/C(=O)O[C@]23C=C[C@@H]4C(C(=O)OC)=CO[C@H](O[C@@H]12)[C@@H]43`, the T/C (dose: 0.27 mg/kg/injection, schedule: Q01DX009 (ip), vehicle: saline) was 110 % of control, the T/C (dose: 0.55 mg/kg/injection, schedule: Q01DX009 (ip), vehicle: saline) was 110 % of control and the T/C (dose: 1.1 mg/kg/injection, schedule: Q01DX009 (ip), vehicle: saline) was 110 % of control. For the same compound, the T/C (dose: 2.2 mg/kg/injection, schedule: Q01DX009 (ip), vehicle: saline) was 110 % of control, the T/C (dose: 165.0 micrograms/kg/injection, schedule: Q01DX009 (ip), vehicle: Klucel (hydroxypropylcellulose) (HPC)) was 115 % of control and the T/C (dose: 310.0 micrograms/kg/injection, schedule: Q01DX009 (ip), vehicle: Klucel (hydroxypropylcellulose) (HPC)) was 115 % of control. The T/C (dose: 1250.0 micrograms/kg/injection, schedule: Q01DX009 (ip), vehicle: Klucel (hydroxypropylcellulose) (HPC)) was 115 % of control.
In the case of `CC(C)CN1CC(=O)N2CCCN2C(=O)C1`, the T/C (dose: 50.0 mg/kg/injection, schedule: Q01DX005 (ip), vehicle: saline) is reported as 94 % of control, the T/C (dose: 100.0 mg/kg/injection, schedule: Q01DX005 (ip), vehicle: saline) is reported as 108 % of control and the T/C (dose: 200.0 mg/kg/injection, schedule: Q01DX005 (ip), vehicle: saline) is reported as 103 % of control.
With `CCOC(=O)NCCCNC(=O)OCC` the T/C [7] was 115 % of control, the T/C [9] was 115 % of control and the T/C [10] was 105 % of control.
For `CCCCNC(C)(C)CS`, the T/C (dose: 3.12 mg/kg/injection, schedule: Q04DX003 (ip), vehicle: saline) was 106 % of control, the T/C (dose: 6.25 mg/kg/injection, schedule: Q04DX003 (ip), vehicle: saline) was 115 % of control and the T/C [3] was 116 % of control. For the same compound, the T/C (dose: 12.5 mg/kg/injection, schedule: Q04DX003 (ip), vehicle: saline) was 108 % of control, the T/C [11] was 109 % of control and the T/C (dose: 25.0 mg/kg/injection, schedule: Q04DX003 (ip), vehicle: saline) was 97 % of control. The T/C (dose: 50.0 mg/kg/injection, schedule: Q04DX003 (ip), vehicle: saline) was 101 % of control and the T/C [7] was 92 % of control.
